Experimental data taken from publication PMC12155980, “Design, Synthesis, and Biological Evaluations of a Novel Resveratrol-Type Analogue Against VEGF” (Molecules, 2025).
pKd: −log10 of the molar value.

How the values were obtained:
VEGF protein = target: T1, VEGF protein (Homo sapiens, UniProt P15692); test: Ultrafiltration binding assay with HPLC quantification; details: ultrafiltration in presence and absence of VEGF protein
T1 sequence (P15692 1-191 isoform P15692-4): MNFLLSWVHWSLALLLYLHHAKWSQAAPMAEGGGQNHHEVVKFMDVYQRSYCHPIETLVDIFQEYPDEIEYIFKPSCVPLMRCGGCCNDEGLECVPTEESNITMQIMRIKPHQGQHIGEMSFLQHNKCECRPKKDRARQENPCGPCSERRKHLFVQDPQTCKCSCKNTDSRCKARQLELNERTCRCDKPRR

VEGF165 protein = target: T2, VEGF165 protein (Homo sapiens, UniProt P15692); test: SPR binding affinity assay (Biacore T200); details: immobilized VEGF165, analytes 1 to 30 µM, estimated, read-out: dissociation constant (Kd)
T2 sequence (P15692 1-191 isoform P15692-4): T1 sequence (P15692 1-191 isoform P15692-4)
Description: In parallel, an ultrafiltration assay was conducted in the presence and absence of VEGF protein (Figure 2A). […] Subsequently, SPR investigation was performed using Biacore T200 (Cytiva, Washington, DC, USA) to detect the binding affinities of RE-1 to the targeted protein. […] When the binding activities between analytes and the protein were detected, response units (RUs) could be calculated and obtained accordingly.
Binding affinities between analytes and VEGF protein were determined using a Biacore T200 (Cytiva, Washington, DC, USA) with a GE Series dextran-coated (CM5) sensor chip. Specifically, the HBS-T mixture (150 mM NaCl, 10 mM Hepes, 0.05% polysorbate 20, 3.4 mM EDTA, 5% DMSO, pH 7.4) was selected as the operating buffer at 25 °C. The immobilizing VEGF protein was covalently placed onto the chip at the sensor surface through amide coupling reagent—EDC/NHS {1-ethyl-3-[3-(dimethylamino) propyl]carbodiimide hydrochloride)/N-hydroxysuccinimide}. Following surface activation, the VEGF protein was dissolved using a coupling buffer (0.1 M acetate buffer, pH 4.5) and placed at the surface of the sensor chip, until the RU (resonance unit) signal of the VEGF protein was detected and reached 6500 RU. To remove unreacted VEGF protein, the chip was washed and subsequently reacted with 10 mM glycine-HCl at pH 1.5. […] Data were further analyzed utilizing GE Biacore T200 control software.

VEGF/VEGFR2 complex = test: Western blot, phosphorylation of VEGF/VEGFR2 in HUVECs; type: cell-based, human; details: VEGF 10 ng/mL
Description: (§1) In light of the investigation above, we further evaluated the anti-VEGF efficacy of RE-1 in cell studies. VEGFR2 was previously identified as the main receptor of VEGF protein. […] ERK1/2, a downstream signal factor, was subsequently stimulated and phosphorylated after the activation of VEGFR2 [17].
(A) VEGF was added at a concentration of 10 ng/mL, and avastin at 200 µg/mL was employed as the positive control. (B) The intensities of each band were quantified and analyzed with software Image Lab (6.1 version). Values were calculated as the percentage of changes compared with blank control (only medium), in mean ± SD, n = 4. * p < 0.05; compared with the control group.
(§2) HUVECs were seeded onto 12-well plates at a density of 1.5 × 10^4 cells/mL and subjected to serum starvation with a serum-free medium overnight. After treatment with various samples, the cells were directly lysed with 200 μL 2× sodium dodecyl sulfate polyacrylamide gel electrophoresis (SDS-PAGE) lysis buffer (100 mM Tris-Cl, pH 6.8, 8% SDS, 0.2% bromophenol blue, 20% glycerol, 400 mM β-mercaptoethanol). The lysates were obtained and denatured at 85 °C for 15 min. Afterwards, the samples were subjected to SDS-PAGE in a 10% gel. Then, 5% skim milk in Tris-buffered saline of pH 7.4 with 0.1% Tween-20 (as TBST) was used for blocking. […] The intensities of each band were quantified and analyzed with software Image Lab.

ERK1/2 = test: Western blot, phosphorylation of downstream ERK1/2 in HUVECs; type: cell-based, human; details: in the presence of VEGF
Text: as §1
(A) Cell treatment was the same as in Figure 3. […] Antibodies in use included: anti-rabbit phospho-p44/42 MAPK, anti-rabbit p44/42 MAPK (CST), and anti-rabbit horseradish peroxidase (HRP) secondary antibody. (B) The intensities of each band were quantified and analyzed with the software Image Lab. Values were calculated as percentage of changes compared with a blank control (only medium), in mean ± SD, n = 4. * p < 0.05; compared with the control group.
as §2, with “gel.” for “gel. Then, 5% skim milk in Tris-buffered saline of pH 7.4 with 0.1% Tween-20 (as TBST) was used for blocking.”

HUVECs [1] = test: VEGF-induced cell proliferation (MTT); type: cell-based, human; details: VEGF 10 ng/mL, 48 h, 0.1-10 µM
Description: (§3) VEGF has been reported as a crucial mediator in human umbilical vein endothelial cells (HUVECs).
HUVECs were incubated in the presence of VEGF (10 ng/mL) with or without drug treatments for 48 h. […] The absorbance of the samples at 570 nm was measured using a microplate reader (Thermo Fisher Scientific, Waltham, MA, USA). * p < 0.05; ** p < 0.01; compared with the control group.
First, 5 × 10^4 cells/mL […] cells were seeded on a 96-well plate. After 24 h incubation, 100 μL VEGF at a concentration of 10 ng/mL with various concentrations of analytes were added to the mixture, followed by the addition of 10 μL of MTT solution (5 mg/mL). Th blank group was set up without any drug treatments, while avastin was utilized as a positive control. The mixture was incubated at 37 °C for 4 h before 150 μL DMSO was employed to dissolve formazan salt formed during the reaction. The sample was collected and read under a microplate reader (Thermo Fisher Scientific) at a wavelength of 570 nm. Proliferation values were calculated as follows: cell proliferation (%) = (experimental value − background value)/(blank value − background value) × 100%.

HUVECs [2] = test: Wound closure assay; type: cell-based, human; details: VEGF 10 ng/mL, 0.3 µM to 3 µM, 20 h
Description: as §3
Figure 6 RE-1 reduces VEGF-regulated wound recovery in HUVECs. […] (D) Quantification of wound recovery. Values were calculated as percentage of changes compared with the blank control (only medium), in mean ± SD, n = 4. * p < 0.05; ** p < 0.01; compared with the control group.
A wound closure assay was performed on cultured HUVECs to study cell migration in vitro. Procedures were described previously by Guo et al.. Briefly, HUVECs were seeded onto a 12-well plate at a density of 3 × 10^5 cells/well, and treatments were added when the cells grew to full confluence. The cells were washed with PBS and treated with drugs. The photos of each cell scrape at 0 (At0) and 20 h (At20) were captured with a microscope and imaging software (Zen, https://www.zeiss.com/microscopy/en/products/software/zeiss-zen.html, accessed on 19 January 2025) at a 10× magnification. The software TScratch 1.0 (CSE Lab, Zurich, Switzerland) was used to determine the open area of each scrape photo at various timepoints. Quantification of the recovery rate of wound was calculated according to the following equation: Wound closure (%) = (At0 − At20)/[…] × 100%.

HaCaT cells [3] = test: VEGF-mediated intracellular ROS formation (DCFH-DA); type: cell-based, human; details: 0.3 to 3 µM
Description: VEGF acts as an inducer in reactive oxygen species (ROS) formation; such an interaction plays an essential role in the activation of VEGFR2-mediated pathways and downstream cell migration.
Figure 7 RE-1 attenuates VEGF-mediated ROS formation in HaCaT cells. (A) HaCaT cells were seeded onto coverslips and mounted with Prolong Gold Antifade Reagent with DAPI. Pictures of cells were captured with confocal microscopy Leica SP8 (Leica, Germany). (B) The intensities of fluorescent signals by DCFH-DA were quantified using the software Leica Application Suite (LAS, 4.12 version) X. Values were calculated as percentage of changes compared with the blank control (only medium), in mean ± SD, n = 4. * p < 0.05; compared with the control group.
Intracellular ROS accumulation was measured with a fluorescent ROS indicator DCFH-DA. Procedures were conducted as described previously. In brief, HaCaT cells were seeded onto coverslips at a density of 1 × 10^5 cells/mL. Following drug treatments, a DCFH-DA probe diluted in serum-free medium at 20 μM was introduced to the cells. The cells were incubated with DCFH-DA for 20 min in a 37 °C incubator. PBS wash was followed to rinse off the residual DCFH-DA. Following this, the cells were fixed with 4% paraformaldehyde (PFA) in PBS for 15 min at room temperature. The PFA was washed off with a PBS wash twice. Coverslips with fixed cells were mounted with Prolong Gold Antifade Reagent with DAPI (Cell Signalling Technology, Boston, MA, USA). Pictures of cells were captured with confocal microscopy Leica SP8 system at 20× magnification (Leica, Wetzlar, Germany). The intensities of fluorescent signals by DCFH-DA were determined through the software Leica Application Suite (LAS) X (Leica Microsystems, Wetzlar, Germany).

HUVECs [4] = test: MTT cell viability (toxicity) in HUVECs; type: cell-based, human; details: cultured HUVECs, concentrations up to 100 µM
HaCaT cells [5] = test: MTT cell viability (toxicity) in HaCaT cells; type: cell-based, human; details: concentrations up to 100 µM
[6] = Caco-2 transepithelial permeability assay; type: in vitro ADME; details: human; for Papp at 0.3 µM: Caco-2, sample tested at 0.3 µM; for Papp at 3 µM: Caco-2, sample tested at 3 µM
[7] = Stability test by HPLC (intra- and inter-day variability); type: physicochemical; details: for Intra-day RSD: n = 6; for Intra-day Mean Peak Area: n = 6, HPLC 210 nm; for Inter-day Mean Peak Area / Inter-day RSD: n = 6, five successive days

| pKd (VEGF165 protein) | Papp at 0.3 µM [6] | Papp at 3 µM [6] | Compound | disruption of phosphorylation of VEGF/VEGFR2 (VEGF/VEGFR2 complex) | inhibition of ERK1/2 phosphorylation (ERK1/2) | inhibition of VEGF-regulated cell proliferation (HUVECs [1]) | inhibition of VEGF-regulated wound closure (HUVECs [2]) | inhibition of VEGF-mediated ROS formation (HaCaT cells [3]) | toxicity (apoptosis) in MTT assay (HUVECs [4]) | toxicity (apoptosis) in MTT assay (HaCaT cells [5]) | other results |
| --- | --- | --- | --- | --- | --- | --- | --- | --- | --- | --- | --- |
| ~5.10 | 15.8 ×10⁻⁶ cm/s | 20.9 ×10⁻⁶ cm/s | COc1cc(/C=C/c2ccc(OCCCn3c4c(c5cc(Br)ccc53)CCCC4n3cccc3)cc2)cc(OC)c1 (centres unmarked) [RE-1] | able to disrupt the phosphorylation and binding activity of VEGF/VEGFR2 complex | found to block ERK1/2 phosphorylation | significant inhibitory activity | higher efficacy than resveratrol | better inhibitory performances than resveratrol | no significant apoptosis | no significant apoptosis | binding degree to the protein (VEGF protein): ~ 32%; Papp ([6]; Caco-2, concentrations from 0.3 µM to 3 µM): 15.8 to 20.9 ×10⁻⁶ cm/s; Intra-day RSD ([7]; acidic solution): 5.84%; Intra-day Mean Peak Area ([7]; acidic solution): 1316.9; Inter-day Mean Peak Area ([7]; acidic solution): 1403.9; Inter-day RSD ([7]; acidic solution): 8.83%; Intra-day RSD ([7]; basic solution): 5.81%; Intra-day Mean Peak Area ([7]; basic solution): 755.8; Inter-day Mean Peak Area ([7]; basic solution): 747.2; Inter-day RSD ([7]; basic solution): 9.35%; Intra-day RSD ([7]; neutral solution): 4.93%; Intra-day Mean Peak Area ([7]; neutral solution): 1002.8; Inter-day Mean Peak Area ([7]; neutral solution): 1046.6; Inter-day RSD ([7]; neutral solution): 9.21% |
|  |  |  | avastin: avastin (bevacizumab), positive control against VEGF |  |  |  |  | able to reduce such an induction |  |  |  |
| ~4.92 | 15.1 ×10⁻⁶ cm/s | 18.2 ×10⁻⁶ cm/s | Oc1ccc(/C=C/c2cc(O)cc(O)c2)cc1 [resveratrol] | able to disrupt the phosphorylation and binding activity of VEGF/VEGFR2 complex | found to block ERK1/2 phosphorylation | decent inhibition | significant inhibitions to wound closure | inhibitory effectiveness | mild apoptosis at relatively high concentrations | mild apoptosis at relatively high concentrations |  |
